Data published in patent US20090202518A1, “Treatment of sepsis and inflammation with alpha2A Adrenergic antagonists” (The Feinstein Institute of Medical Research, priority 2005, published 2009).
“Also recorded” adds a separate entry of the source.

Experiments:
[1] = test system: male rats with sepsis induced by cecal ligation and puncture (CLP); assay: Cecal ligation and puncture (CLP) model of sepsis in rats; type: in vivo, rat
Procedure: Sepsis was induced in male rats by cecal ligation and puncture (CLP). The CLP model of sepsis has been used extensively as a reliable model of the pathophysiologic and immunologic alterations in human sepsis.
BRL-44408 maleate (2.5 mg/kg BW) was administered intravenously at the time of CLP. Twenty hours after CLP, the rats were sacrificed and blood and liver samples were collected. Serum levels of TNF-α, liver enzymes (i.e., AST and ALT), lactate and creatinine were measured. Gene expression of TNF-α in the liver was analyzed. In additional groups of animals, the necrotic cecum was excised at 20 h post-CLP and the 10-day survival was recorded.

Kupffer cells (KCs) = assay: TNF-α release from cultured Kupffer cells; type: cell-based
Description: The nervous system regulates the inflammatory response in real time. Our previous studies have shown that the sympathetic neurotransmitter, norepinephrine (NE), increases TNF-α release via activation of α2A-adrenoceptor (α2A-AR) on Kupffer cells (KCs). In cultured KCs, NE increases the release of TNF-α by 3.4-fold and a specific antagonist for α2A-AR, BRL-44408 maleate, reduces TNF-α secretion by 51%. However, it remains unknown whether in vivo administration of α2A-AR antagonists in sepsis is beneficial.

[2] = 2.5 mg/kg BW intravenously at the time of CLP, 20 h after CLP, means±SE, n = 6/group

SMILES: CC1c2ccccc2CN1CC1=NCCN1.O=C(O)/C=C\C(=O)O (stereo not drawn) [BRL-44408 maleate]
- ALT (serum level) [1, 2]: 20.5 ± 4.5 IU/L
- AST (serum level) [1, 2]: 20.9 ± 5.3 IU/L
- Creatinine (serum level) [1, 2]: 1.1 ± 0.2 mg/dL
- Lactate (serum level) [1, 2]: 20.6 ± 1.9 mg/dL
- TNF-α (serum level) [1, 2]: 91.8 ± 8.1 pg/mL
- TNF-α/G3PDH (mRNA) ([1]; liver gene expression, 2.5 mg/kg BW intravenously at the time of CLP, 20 h after CLP, means±SE, n = 6/group): 0.5 ± 0.1
- 10-day survival / mortality ([1]; necrotic cecum excised at 20 h post-CLP, FIG. 1): increased survival; also recorded: reduced mortality
- reduction of TNF-α secretion (Kupffer cells (KCs)): 51%

SMILES: NC[C@H](O)c1ccc(O)c(O)c1 [NE, norepinephrine]
- increase of the release of TNF-α (Kupffer cells (KCs)): 3.4 fold
